The structures appear in SMILES notation.

Series [1] in a line: Liver microsome intrinsic clearance (mouse). In kind it is in vitro ADME. Conditions: pH 7.4; mouse liver microsomes; read-out: LMS CLINT mouse. On the procedure: After a 5 min preincubation, the reaction was initiated by the addition of NADPH (1 mM). At selected time intervals between 0 ~ 60 min (e.g. 0, 3, 7, 15, 25, 45 and/or 60 min), aliquots were taken and subsequently placed into a 96-well plate containing cold acetonitrile with an internal standard (50 ng/mL carbamazepine). Plates were then centrifuged at 3000 rcf (4 °C) for 10 min, and the supernatant was transferred to a separate 96-well plate and diluted 1:1 with water for LC/MS/MS analysis. The in vitro half-life (T 1/2, min, Eq. 1), intrinsic clearance (CLint, mL/min/kg, Eq. 2), and subsequent predicted hepatic clearance (CLhep, mL/min/kg, Eq. 3) were determined employing the following equations: […]
where k represents the slope from linear regression analysis of the natural log percent remaining of a test compound as a function of incubation time […]
(2) CLint = in vitroT1/2 x mg microsomes x gram liver x kg body wt ascale-up factors: of 20 (human) or 45 (rat) or 87.5 (mouse) […]
where Qh (hepatic blood flow, mL/min/kg) is 21 (human) or 70 (rat) or 90 (mouse).
LC/MS/MS Bioanalysis of Samples from Plasma Protein Binding and Intrinsic Clearance […]
Samples were analyzed on a Thermo Electron TSQ Quantum Ultra triple quad mass spectrometer (San Jose, CA) via electrospray ionization (ESI) with two Themo Electron Accella pumps (San Jose, CA), and a Leap Technologies CTC PAL autosampler (Carrboro, NC). Analytes were separated by gradient elution on a dual column system with two Thermo Hypersil Gold (2.1 x 30 mm, 1.9 µm) columns (San Jose, CA) thermostated at 40 °C. HPLC mobile phase A was 0.1% formic acid in water and mobile phase B was 0.1% formic acid in acetonitrile. The gradient started […]
for 0.2 min; returned to 10% B in 0.1 min. The total run time was 1.3 min and the HPLC flow rate was 0.8 mL/min. While pump 1 ran the gradient method, pump 2 equilibrated the alternate column isocratically at 10% B. Compound optimization, data collection, and processing were performed using Thermo Electron's QuickQuan software (v2.3) and Xcalibur (v2.0.7 SP1). […]
For orientation: Liver microsomes are a subcellular fraction often used to study metabolism.

The next series in a line: Aqueous solubility. In kind it is physicochemical.
A further series deals with KCNQ1 (Homo sapiens, UniProt P51787). As to the kind of experiment: Cardiac ion channel MPC selectivity panel. In kind it is cell-based.
In series [2] the test system is other K2P channels except TREK-2. As to the kind of experiment: K2P channel selectivity (panel). The format is cell-based. The source says:
Herein we describe our continuing work on the K2P family of potassium ion channels with the chemical optimization of a selective and CNS penetrant series of TREK inhibitors, culminating in the discovery of ONO-TR-772 (VU6018042).

Another series addresses Cav1.2 (Homo sapiens, UniProt Q13936). Kind of series: Cardiac ion channel MPC selectivity panel. The format is cell-based.
Series [3] is described as follows: Plasma protein binding (mouse). The format is in vitro ADME. Conditions: pH 7.4, read-out: PPB mouse (converted). As for the experimental part:
0.3% DMSO - ΔRatio of 1 µM control compound)x100
In vitro Plasma protein binding and Brain homogenate binding: Determination of fraction unbound (f u) in plasma was conducted in vitro via equilibrium dialysis using HTDialysis (HTD) membrane plates. The top half of the plate was filled with 100 uL of Dubelco’s Phosphate Buffered Saline, pH 7.4 (DPBS). Compounds were diluted into plasma from each species (5 µM final concentration), which was aliquoted in triplicate to the ‘bottom half’ of the prepared HTD plate wells. The HTD plate was sealed and incubated for 6 hours at 37 °C. Following incubation, each well (both top and bottom halves) were transferred (20 µL) to the corresponding wells of a 96-shallow-well (V-bottom) plate. The daughter plates were then matrix-matched (DPBS side wells received equal volume of plasma, and plasma side wells received equal volume of DPBS), and extraction solution (120 µL; acetonitrile containing 50 nM carbamazepine as IS) was added to all wells of both daughter plates to precipitate protein and extract test article. The plates were then sealed and centrifuged (3500 rcf) for 10 minutes at ambient temperature. Supernatant (60 µL) from each well of the daughter plates was then transferred to the corresponding wells of new daughter plates (96-shallow-well, V bottom) containing water (Milli-Q, 60 µL/well), and the plates were sealed in preparation for LC-MS/MS analysis (see LC-MS/MS analysis method below).
The unbound fraction (f u) was calculated following the equation below, and mean values for each species were calculated from 3 replicates. A similar approach was used to determine the degree of brain homogenate binding, which employed the same methodology and procedure with the following modifications: 1) a final compound concentration of 1 μM was used, 2) naïve rat brains were homogenized in DPBS (1:3 composition of brain: DPBS, w/w) using a Mini-Bead Beater™ machine in order to obtain brain homogenate, which was then treated in the same manner as the plasma samples in the previously described plasma protein binding assay. Fraction unbound for both plasma and brain samples was determined using Equation 4.

In a further series the target is Opiate κ (OP2, KOP) (Homo sapiens, UniProt P41145). Kind of series: Eurofins lead profiling screen (radioligand binding).
Sequence of Opiate κ (OP2, KOP) (P41145 whole entry): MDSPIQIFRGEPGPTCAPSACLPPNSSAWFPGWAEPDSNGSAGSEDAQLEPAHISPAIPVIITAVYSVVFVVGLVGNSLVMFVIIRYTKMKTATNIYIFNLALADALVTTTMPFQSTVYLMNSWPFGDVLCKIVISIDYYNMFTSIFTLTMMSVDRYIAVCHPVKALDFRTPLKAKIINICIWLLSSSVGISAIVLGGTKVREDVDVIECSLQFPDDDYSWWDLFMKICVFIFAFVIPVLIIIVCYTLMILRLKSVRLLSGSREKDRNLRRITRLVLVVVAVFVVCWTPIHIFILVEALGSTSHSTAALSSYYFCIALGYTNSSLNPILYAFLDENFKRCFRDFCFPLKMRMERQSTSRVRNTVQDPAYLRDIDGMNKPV
The target in another series is Adenosine A2A (Homo sapiens, UniProt P29274). The series is described as above.
Sequence of Adenosine A2A (P29274 whole entry): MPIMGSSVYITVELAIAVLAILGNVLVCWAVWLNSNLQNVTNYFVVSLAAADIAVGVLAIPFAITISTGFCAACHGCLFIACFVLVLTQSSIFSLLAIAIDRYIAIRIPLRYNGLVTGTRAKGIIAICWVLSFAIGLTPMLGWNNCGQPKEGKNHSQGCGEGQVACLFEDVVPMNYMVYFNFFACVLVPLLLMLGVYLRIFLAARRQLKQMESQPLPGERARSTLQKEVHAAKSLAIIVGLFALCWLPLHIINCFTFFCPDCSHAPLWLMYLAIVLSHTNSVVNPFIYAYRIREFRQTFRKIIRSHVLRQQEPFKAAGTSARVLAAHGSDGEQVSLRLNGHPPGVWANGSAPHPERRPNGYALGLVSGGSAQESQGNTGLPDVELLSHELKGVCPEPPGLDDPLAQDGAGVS
For series [4], the target named is Platelet Activating Factor (PAF) (Homo sapiens, UniProt P25105). The series is described as above.
Sequence of Platelet Activating Factor (PAF) (P25105 whole entry): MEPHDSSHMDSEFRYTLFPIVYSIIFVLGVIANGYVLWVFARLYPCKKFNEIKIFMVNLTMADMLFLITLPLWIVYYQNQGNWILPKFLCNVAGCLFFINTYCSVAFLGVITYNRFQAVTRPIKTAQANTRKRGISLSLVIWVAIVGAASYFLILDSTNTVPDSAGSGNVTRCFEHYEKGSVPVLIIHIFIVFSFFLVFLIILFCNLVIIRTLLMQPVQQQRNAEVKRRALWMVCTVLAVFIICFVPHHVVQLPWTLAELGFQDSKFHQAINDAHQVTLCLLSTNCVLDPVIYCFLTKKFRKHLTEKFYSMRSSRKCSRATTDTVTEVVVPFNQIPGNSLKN
Series [5] addresses Transporter, Norepinephrine (NET) (Homo sapiens, UniProt P23975). The description is as above.
For the next series, the target named is Estrogen ERα (Homo sapiens, UniProt P03372). The description is as above.
Sequence of Estrogen ERα (P03372 whole entry): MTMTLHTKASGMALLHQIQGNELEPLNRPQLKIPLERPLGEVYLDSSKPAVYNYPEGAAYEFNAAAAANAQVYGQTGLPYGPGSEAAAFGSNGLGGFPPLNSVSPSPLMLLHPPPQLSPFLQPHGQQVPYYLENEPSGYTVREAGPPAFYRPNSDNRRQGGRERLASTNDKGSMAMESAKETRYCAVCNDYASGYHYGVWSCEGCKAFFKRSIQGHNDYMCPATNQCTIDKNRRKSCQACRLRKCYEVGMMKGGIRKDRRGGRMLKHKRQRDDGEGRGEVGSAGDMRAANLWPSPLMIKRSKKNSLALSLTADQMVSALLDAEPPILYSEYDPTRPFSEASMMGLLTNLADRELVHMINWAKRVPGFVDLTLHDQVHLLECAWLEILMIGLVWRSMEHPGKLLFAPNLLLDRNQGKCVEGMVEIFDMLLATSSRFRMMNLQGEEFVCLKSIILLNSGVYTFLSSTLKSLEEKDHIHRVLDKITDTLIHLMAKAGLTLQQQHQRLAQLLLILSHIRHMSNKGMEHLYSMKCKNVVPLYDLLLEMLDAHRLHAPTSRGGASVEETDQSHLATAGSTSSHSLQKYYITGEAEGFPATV
For the next series, the target named is hERG potassium channel (Homo sapiens, UniProt Q12809). The description is as above.
Sequence of hERG potassium channel (Q12809 whole entry): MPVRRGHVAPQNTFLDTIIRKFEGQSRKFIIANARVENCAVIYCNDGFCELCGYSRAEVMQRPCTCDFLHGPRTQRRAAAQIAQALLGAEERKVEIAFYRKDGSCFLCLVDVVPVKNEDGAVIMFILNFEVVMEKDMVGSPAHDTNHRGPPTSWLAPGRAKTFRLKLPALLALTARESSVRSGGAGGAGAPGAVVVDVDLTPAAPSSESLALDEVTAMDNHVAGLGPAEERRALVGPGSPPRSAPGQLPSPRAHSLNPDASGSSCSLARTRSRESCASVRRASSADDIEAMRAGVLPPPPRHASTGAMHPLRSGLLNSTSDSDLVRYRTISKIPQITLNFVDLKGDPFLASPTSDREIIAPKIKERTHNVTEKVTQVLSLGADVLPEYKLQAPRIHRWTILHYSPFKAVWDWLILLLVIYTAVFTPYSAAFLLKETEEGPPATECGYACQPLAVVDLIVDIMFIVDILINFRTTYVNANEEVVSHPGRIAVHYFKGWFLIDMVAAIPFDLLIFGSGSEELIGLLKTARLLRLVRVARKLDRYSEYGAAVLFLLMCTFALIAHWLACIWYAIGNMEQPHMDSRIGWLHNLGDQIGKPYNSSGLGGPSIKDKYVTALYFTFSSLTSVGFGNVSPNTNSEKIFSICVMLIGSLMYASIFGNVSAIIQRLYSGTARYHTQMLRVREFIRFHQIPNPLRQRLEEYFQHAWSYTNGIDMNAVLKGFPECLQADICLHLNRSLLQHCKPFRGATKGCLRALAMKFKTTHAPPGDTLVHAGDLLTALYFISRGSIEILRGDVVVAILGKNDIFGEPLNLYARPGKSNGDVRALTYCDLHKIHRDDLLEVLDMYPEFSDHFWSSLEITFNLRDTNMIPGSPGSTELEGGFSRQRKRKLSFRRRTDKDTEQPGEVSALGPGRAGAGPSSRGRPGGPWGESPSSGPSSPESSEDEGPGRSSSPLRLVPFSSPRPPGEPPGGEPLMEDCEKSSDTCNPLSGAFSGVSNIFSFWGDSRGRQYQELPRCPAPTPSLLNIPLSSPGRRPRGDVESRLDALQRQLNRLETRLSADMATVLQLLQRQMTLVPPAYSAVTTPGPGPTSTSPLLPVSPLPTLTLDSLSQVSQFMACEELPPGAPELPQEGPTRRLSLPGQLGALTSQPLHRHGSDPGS
The target of another series is Potassium Channel [KATP] (Cricetus cricetus, UniProt Q09427). Described as above. Details: species or system Hamster.
A further series deals with Adrenergic β1 (Homo sapiens, UniProt P08588). Described as above.
Sequence of Adrenergic β1 (P08588 whole entry): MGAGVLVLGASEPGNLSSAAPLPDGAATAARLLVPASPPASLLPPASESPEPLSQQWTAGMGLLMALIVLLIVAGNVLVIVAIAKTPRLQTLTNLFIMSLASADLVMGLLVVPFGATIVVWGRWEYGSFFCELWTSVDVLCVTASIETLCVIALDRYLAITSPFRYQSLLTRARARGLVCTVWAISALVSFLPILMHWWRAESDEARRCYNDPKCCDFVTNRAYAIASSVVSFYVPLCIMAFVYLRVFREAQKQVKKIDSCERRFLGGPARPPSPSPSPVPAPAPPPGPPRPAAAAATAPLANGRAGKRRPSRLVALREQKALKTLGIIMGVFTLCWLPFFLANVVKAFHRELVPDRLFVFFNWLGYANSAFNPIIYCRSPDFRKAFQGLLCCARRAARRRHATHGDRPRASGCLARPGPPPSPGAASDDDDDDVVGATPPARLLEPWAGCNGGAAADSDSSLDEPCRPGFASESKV
A further series has as its target Melatonin MT1 (Homo sapiens, UniProt P48039). Described as above.
For the next series, the target named is Muscarinic M3 (Homo sapiens, UniProt P20309). Described as above.
Sequence of Muscarinic M3 (P20309 whole entry): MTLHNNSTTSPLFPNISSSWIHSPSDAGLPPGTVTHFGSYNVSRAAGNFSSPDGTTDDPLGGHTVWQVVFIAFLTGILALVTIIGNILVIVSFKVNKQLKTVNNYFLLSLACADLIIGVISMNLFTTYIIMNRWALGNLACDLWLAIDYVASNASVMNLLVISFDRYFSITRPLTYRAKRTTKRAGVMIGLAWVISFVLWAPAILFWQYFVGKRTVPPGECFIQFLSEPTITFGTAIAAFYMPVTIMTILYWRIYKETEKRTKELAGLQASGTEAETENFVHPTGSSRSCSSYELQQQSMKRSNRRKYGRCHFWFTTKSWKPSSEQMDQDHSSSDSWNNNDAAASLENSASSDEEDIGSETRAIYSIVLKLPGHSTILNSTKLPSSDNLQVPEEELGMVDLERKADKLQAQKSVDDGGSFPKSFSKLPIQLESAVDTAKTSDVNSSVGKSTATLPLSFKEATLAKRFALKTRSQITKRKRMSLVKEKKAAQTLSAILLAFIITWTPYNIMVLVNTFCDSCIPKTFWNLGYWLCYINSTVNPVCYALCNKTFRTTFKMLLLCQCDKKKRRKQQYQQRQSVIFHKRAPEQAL
The next series has as its target Adrenergic α1A (Rattus norvegicus, UniProt P43140). Described as above.
Another series deals with Bradykinin B1 (Homo sapiens, UniProt P46663). The series is described as above.
Sequence of Bradykinin B1 (P46663 whole entry): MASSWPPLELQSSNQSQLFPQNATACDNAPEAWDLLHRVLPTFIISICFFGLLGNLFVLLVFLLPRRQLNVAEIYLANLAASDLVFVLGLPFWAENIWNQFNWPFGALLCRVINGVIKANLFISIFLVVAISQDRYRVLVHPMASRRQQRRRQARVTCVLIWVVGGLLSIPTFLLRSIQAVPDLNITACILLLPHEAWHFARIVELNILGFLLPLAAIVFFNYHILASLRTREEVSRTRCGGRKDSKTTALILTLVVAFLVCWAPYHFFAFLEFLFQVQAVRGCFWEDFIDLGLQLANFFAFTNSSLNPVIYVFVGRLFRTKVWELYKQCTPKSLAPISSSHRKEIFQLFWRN

Sequence of Adrenergic α1A (P43140 whole entry): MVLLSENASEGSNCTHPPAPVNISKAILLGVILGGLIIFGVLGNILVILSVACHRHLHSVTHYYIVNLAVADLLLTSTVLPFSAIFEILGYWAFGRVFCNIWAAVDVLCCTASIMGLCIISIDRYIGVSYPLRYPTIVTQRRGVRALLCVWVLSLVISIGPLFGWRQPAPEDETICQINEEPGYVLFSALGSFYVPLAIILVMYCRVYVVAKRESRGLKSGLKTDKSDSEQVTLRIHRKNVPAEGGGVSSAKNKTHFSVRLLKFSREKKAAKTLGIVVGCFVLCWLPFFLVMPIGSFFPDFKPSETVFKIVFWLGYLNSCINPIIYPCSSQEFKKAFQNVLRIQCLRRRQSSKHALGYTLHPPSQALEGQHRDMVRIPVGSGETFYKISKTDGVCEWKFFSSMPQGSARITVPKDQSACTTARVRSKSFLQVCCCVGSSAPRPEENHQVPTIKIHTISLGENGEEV

Consider `Cc1cc(C#Cc2ccc(F)cc2)cnc1NC(=O)c1cc(NC(=O)OC(C)(C)C)ccc1Cl` [Compound 14c], for which the CLint scaled at 1 µM in series [1] worked out at 13 mL/min/kg. In addition, in “Aqueous solubility”, the solubility (in general, the dissolved amount per volume that the medium holds) was less than 5 µM. The “% at 10 μM, KCNQ1” value at KCNQ1 was less than 50%. Moreover, in series [2], the “activity versus other K2P channels except TREK-2” value was greater than 10 µM. The “% at 10 μM, Cav1.2” value on Cav1.2 was less than 50%. Also, the fraction unbound at 6 h, 5 µM in [3] is 0.016.

On to `O=C(NCc1ccc(OC(F)(F)F)cc1F)c1ccc2ncnn2c1` [ONO-2920632], for which the inhibition (in general, the relative decrease from the control value, in per cent) at 10 µM stood at 9% on Opiate κ (OP2, KOP); 3% at Adenosine A2A; 26% in [4]; 29% in series [5]; 8% on Estrogen ERα; 39% on hERG potassium channel. The inhibition at 10 µM at Potassium Channel [KATP] is -6%; on Adrenergic β1 it was -1%; on Melatonin MT1 it was 29%; on Muscarinic M3, 7%; on Adrenergic α1A it was 40%; at Bradykinin B1, 27%.

Source of the values: paper PMC12067145 (ACS Medicinal Chemistry Letters, 2025).
